Test results taken from article PMC5049701 (Nature chemical biology, 2016).

Molecular target: T1, FsqB (Aspergillus fumigatus, UniProt Q4WD43)
T1 sequence (Q4WD43 1-497): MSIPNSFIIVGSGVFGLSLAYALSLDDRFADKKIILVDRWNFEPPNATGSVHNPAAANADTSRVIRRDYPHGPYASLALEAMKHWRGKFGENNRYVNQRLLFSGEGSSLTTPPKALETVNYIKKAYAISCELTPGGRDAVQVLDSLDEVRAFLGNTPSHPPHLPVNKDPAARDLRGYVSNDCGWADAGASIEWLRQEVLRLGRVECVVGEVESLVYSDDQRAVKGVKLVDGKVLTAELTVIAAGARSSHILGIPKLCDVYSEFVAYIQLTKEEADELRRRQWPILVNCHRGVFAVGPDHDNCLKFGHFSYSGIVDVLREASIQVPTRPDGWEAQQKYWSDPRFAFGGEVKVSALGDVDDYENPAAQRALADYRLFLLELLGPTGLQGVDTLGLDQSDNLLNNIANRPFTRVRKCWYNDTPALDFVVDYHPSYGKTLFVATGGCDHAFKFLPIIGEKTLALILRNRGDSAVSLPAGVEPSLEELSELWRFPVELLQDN
Test: tryptic digest UHPLC-MS/MS
Assay type: binding
Conditions: covalent, bound to cysteine-414

Compound: Cc1cc2nc3c(=O)[nH]c(=O)nc-3n(C[C@H](O)[C@H](O)[C@H](O)COP(=O)(O)OP(=O)(O)OC[C@H]3O[C@@H](n4cnc5c(N)ncnc54)[C@H](O)[C@@H]3O)c2cc1C [FAD]
- tryptic digest UHPLC-MS/MS; flavin fluorescence: presence of FAD, which was found to be covalently bound to cysteine-414
